# Measured values as given in US20180200392A1, “DETECTION AND TREATMENT OF RENAL CELL CARCINOMA WITH A SLC6A3 LIGAND LINKED TO A LABEL, CYTOTOXIC OR IMMUNO[…]” (Akuru Pharma AB, priority 2015, published 2018).
# Key:
# KMRC-3 cells = assay: SPECT/CT imaging of mice with orthotopically injected KMRC-3 ccRCC cells; assay type: in vivo; settings: 5.36 MBq injected 13 weeks after cell injection, imaged after 1 h and 35 min, FIG. 4
# Description: FIG. 4: SPECT/CT images of a mouse injected with 5.36 MBq (^123I-Ioflupan).
# ccRCC cell line KMRC-3 cells were injected orthotopically in mice, 2*10^6 cells in 40 ul PBS. After 13 weeks the mice were injected with 5.36 MBq ^123I-Ioflupan and analysed by SPECT/CT imaging after 1 h and 35 min.
# [1] = in vivo; cited from earlier work
# ccRCC cell lines = settings: 7 nM [3H]dopamine; uptake correlates with SLC6A3 expression level
# Description: (§1) Uptake experiments were performed in cells cultivated in 12-well plates at 37° C. The cells of interest were seeded at 80.000 cells/well 48 h before the uptake experiment was performed. The wells were washed in 1×PBS, followed by a wash in 1 ml of assay buffer (Hanks Balanced Salt Solution (HBSS) with CaCl2 and MgCl2, without phenol red supplemented with 10 mM HEPES, pH 7.4) at 37° C. and then incubated with 0.5 ml of buffer for 5 min. […] All uptake experiments were stopped by removing the uptake buffer and adding 1 ml of ice-cold assay buffer to each well and immediately aspirating the buffer and washing three additional times with 1 ml of ice-cold buffer. The incorporated radioactivity was extracted by solubilising the cells with 1% Triton-X for 1 h at R.T, 6 ml of scintillation fluid was thereafter added. The amount of radioactivity was measured with a Tri-carb 2810TR liquid scintillation analyzer (Perkin Elmer).
# SLC6A3 = SLC6A3 (Homo sapiens, UniProt Q01959); assay: [3H]dopamine uptake in ccRCC cell lines in the presence of specific SLC6A3 inhibitors; settings: GBR12935 30 nM (SKRC10); GBR12909 10-90 nM (KMRC3, SNU-349); 1 h pre-incubation, 5 min uptake; FIG. 8 A-C
# Chain of SLC6A3 (Q01959 whole entry): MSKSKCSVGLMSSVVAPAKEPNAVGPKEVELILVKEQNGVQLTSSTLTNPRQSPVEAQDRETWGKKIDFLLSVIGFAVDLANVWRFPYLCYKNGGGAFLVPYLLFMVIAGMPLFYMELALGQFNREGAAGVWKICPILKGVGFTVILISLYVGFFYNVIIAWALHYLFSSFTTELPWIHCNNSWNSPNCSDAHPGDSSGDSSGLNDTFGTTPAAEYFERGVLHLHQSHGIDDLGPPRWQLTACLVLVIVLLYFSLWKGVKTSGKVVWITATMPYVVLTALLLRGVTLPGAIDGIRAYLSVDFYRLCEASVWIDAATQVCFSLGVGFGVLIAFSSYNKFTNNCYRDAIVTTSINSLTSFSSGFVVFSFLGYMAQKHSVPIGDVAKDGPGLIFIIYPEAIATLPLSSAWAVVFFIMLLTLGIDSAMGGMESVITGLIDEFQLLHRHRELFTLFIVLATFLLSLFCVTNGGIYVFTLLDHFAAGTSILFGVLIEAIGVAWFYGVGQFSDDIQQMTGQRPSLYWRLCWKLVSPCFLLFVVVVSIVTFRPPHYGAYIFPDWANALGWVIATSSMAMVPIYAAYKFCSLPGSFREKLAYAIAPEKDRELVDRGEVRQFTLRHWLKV
# Description: Data presented as mean±SEM.
# as §1
# Description for primary ccRCC cells: as §1
compound,measurement,setting,value
"COC(=O)[C@@H]1C2CCC(C[C@@H]1c1ccc(I)cc1)N2CCCF (stereo partly drawn) [Ioflupane (^123I), [^123I] N-ω-fluoropropyl-2β-carbomethoxy-3β-(4-iodophenyl)nortropane]",uptake in contralateral kidney lacking injected tumor cells (SPECT/CT),KMRC-3 cells,no enhanced uptake
same,uptake in kidney orthotopically injected with KMRC-3 cells (SPECT/CT),KMRC-3 cells,clearly display enhanced uptake
same,uptake in contralateral kidney lacking injected tumor cells (SPECT/CT),KMRC-3 cells; listed as 123I-Ioflupan,no signal could be detected
same,uptake in kidney orthotopically injected with KMRC-3 cells (SPECT/CT),KMRC-3 cells; listed as 123I-Ioflupan,uptake
"Fc1ccc(C(OCCC2CCN(Cc3ccc(I)cc3)CC2)c2ccc(F)cc2)cc1 [FMIP, 4-(2-(bis(4-fluorophenyl)methoxy)ethyl)-1-(4-iodobenzyl)piperidine]",passage of the blood-brain barrier,[1],does not pass the blood-brain barrier
NCCc1ccc(O)c(O)c1 [[H^3]dopamine],uptake of [3H]dopamine by primary ccRCC cells compared to primary normal cortex cell,"primary ccRCC cells; 7 nM [3H]dopamine, 1-20 min, 37° C., FIG. 3 and FIG. 7A",enhanced uptake
same,uptake of [3H]dopamine by ccRCC cell lines,ccRCC cell lines,take up
"NCCc1ccc(O)c(O)c1 [unlabelled dopamine, dopamine]",[3H]dopamine uptake of primary ccRCC tumor cells in response to competitive unlabelled dopamine,"primary ccRCC cells; 7 nM [3H]dopamine with 2 uM or 20 uM unlabelled dopamine for 5 min, FIG. 7A-B",decreased uptake
c1ccc(CCCN2CCN(CCOC(c3ccccc3)c3ccccc3)CC2)cc1 [GBR12935],amount of [3H]-dopamine taken up by ccRCC cells in presence of inhibitor,SLC6A3,clearly diminish
